Values quoted from earlier work in patent US20220162327A1, “ANTI-CCR5 AGENTS AND METHODS OF TREATMENT THAT BLOCK CANCER METASTASIS OR ENHANCE CELL DEATH INDUCED BY DNA DAMAGING CHEMOTHERAPY” (CytoDyn Inc., priority 2019, published 2022).

Assays:
CCR5 [1] = molecular target: T1, CCR5 (Homo sapiens, UniProt P51681); parameters: endogenous in cells; host or cells: CD4+ T cells; details: cited from earlier work
[2] = tested on: breast cancer tumor model; details: cited from earlier work
CCL5 = details: human colorectal cancer liver metastasis; cited from earlier work
CCR5 [3] = molecular target: T1, CCR5; details: activated human T cells, cited from earlier work

T1 sequence (P51681 whole entry): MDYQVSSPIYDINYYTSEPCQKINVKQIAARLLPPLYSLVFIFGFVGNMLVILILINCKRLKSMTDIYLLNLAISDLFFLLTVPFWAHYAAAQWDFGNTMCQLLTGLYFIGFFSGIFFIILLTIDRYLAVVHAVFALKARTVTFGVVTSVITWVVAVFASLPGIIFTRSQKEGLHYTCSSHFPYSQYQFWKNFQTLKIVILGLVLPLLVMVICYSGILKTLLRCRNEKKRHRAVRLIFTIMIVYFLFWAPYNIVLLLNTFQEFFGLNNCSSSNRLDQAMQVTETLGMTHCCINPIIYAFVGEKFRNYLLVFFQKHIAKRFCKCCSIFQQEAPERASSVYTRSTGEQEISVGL

COC[C@@H](c1ccc(C(F)(F)F)cc1)N1CCN(C2(C)CCN(C(=O)c3c(C)ncnc3C)CC2)C[C@@H]1C [vicriviroc]
cell killing mediated by DNA-damaging chemotherapeutic agents (CCR5 [1]): dramatically enhanced cell killing

maraviroc
cell killing mediated by DNA-damaging chemotherapeutic agents (CCR5 [1]): dramatically enhanced cell killing
lung metastases [2]: effectively blocked lung metastases
effect on tumor-associated macrophages and tumor cells (CCL5): led to repolarization of tumor-associated macrophages and tumor cell death
production of TNF-α and IFN-γ (CCR5 [3]; high doses): tends to decrease production of TNF-α and IFN-γ
CCR5 and CCR2 internalization induced by CCL5 and CCL2 (CCR5 [3]): can block CCR5 and CCR2 internalization processes induced by CCL5 and CCL2
T cell chemotactic activities toward cognate ligands (CCR5 [3]): inhibit T cell chemotactic activities
